# Assay results from US7964531B2, “3-phenoxy-4-pyridazinol derivatives and herbicidal composition containing the same” (Mitsui Chemicals Agro, Inc., priority 2001, dated 2011).
row,melting point,Structure (SMILES)
1,203 to 206 °C,"Cn1ccc2c(Oc3nnc(Cl)cc3O)cccc21 [Compound No. 2565, 6-Chloro-3-[(1-methyl-1H-indol-4-yl)oxy]-4-pyridazinol]"
2,151.5 to 152.5 °C,"CCCCCc1ccccc1Oc1nnc(Cl)cc1O [Compound No. 137, 6-Chloro-3-(2-pentylphenoxy)-4-pyridazinol]"
3,237 to 242 °C,"Oc1cc(Cl)nnc1Oc1cc(C(F)(F)F)cc(C(F)(F)F)c1 [Compound No. 1009, 3-[3,5-Bis(trifluoromethyl)phenoxy]-6-chloro-4-pyridazinol]"
4,215 to 220 °C,"Cc1cccc(C(C)C)c1Oc1nnc(Cl)cc1O [Compound No. 803, 6-Chloro-3-(2-isopropyl-6-methylphenoxy)-4-pyridazinol]"
5,173 to 175 °C,"O=C(O)C1(c2ccccc2Oc2nnc(Cl)cc2O)CCC1 [Compound No. 288, 1-{2-[(6-Chloro-4-hydroxy-3-pyridazinyl)oxy]phenyl}cyclobutanecarboxylic acid]"
6,249 to 258 °C,"CC(C)(C)c1ccc(C(C)(C)C)c(Oc2nnc(Cl)cc2O)c1 [Compound No. 653, 6-Chloro-3-(2,5-di-tert-butylphenoxy)-4-pyridazinol]"
7,234 to 235 °C,"Cc1c(Br)ccc(C2CC2)c1Oc1nnc(Cl)cc1O [Compound No. 2587, 3-(3-Bromo-6-cyclopropyl-2-methylphenoxy)-6-chloro-4-pyridazinol]"
8,113 to 115 °C,Cc1cccc(C2CC2)c1Oc1nnc(Cl)cc1OC(=O)N(C)C(C)(C)C
9,157 to 159 °C,"Cc1cccc(C2CC2)c1Oc1nnc(Cl)cc1OC(=O)n1c2ccccc2c2ccccc21 [Compound No. 3714, 6-Chloro-3-(2-cyclopropyl-6-methylphenoxy)-4-pyridazinyl 9H-carbazole-9-carboxylate]"
10,206 to 211 °C,"Oc1cc(Cl)nnc1Oc1cccc2c1OCO2 [Compound No. 544, 3-(1,3-Benzodioxol-4-yloxy)-6-chloro-4-pyridazinol]"
11,227 to 228 °C,"Oc1cc(Cl)nnc1Oc1cc(F)ccc1C1CC1 [Compound No. 658, 6-Chloro-3-(2-cyclopropyl-5-fluorophenoxy)-4-pyridazinol]"
12,221 to 227 °C,"Oc1cc(Cl)nnc1Oc1ccc(C2CC2)cc1 [Compound No. 434, 6-Chloro-3-(4-cyclopropylphenoxy)-4-pyridazinol]"
13,63 to 64 °C,"Cc1ccccc1C(=O)Oc1cc(Cl)nnc1Oc1cccc(C(C)(C)C)c1 [Compound No. 1457, 3-(3-tert-Butylphenoxy)-6-chloro-4-pyridazinyl 2-methylbenzoate]"
14,140 to 141 °C,"Cc1cccc(Oc2nnc(Cl)cc2O)c1Br [Compound No. 450, 3-(2-Bromo-3-methylphenoxy)-6-chloro-4-pyridazinol]"
15,193 to 196 °C,"CCc1ccc2c(c1Oc1nnc(Cl)cc1O)CCC2 [Compound No. 1089, 6-Chloro-3-[(5-ethyl-2,3-dihydro-1H-inden-4-yl)oxy]-4-pyridazinol]"
16,69 to 71 °C,"Cc1cccc(C2CC2)c1Oc1nnc(Cl)cc1OC(=O)C(C)(C)Br [Compound No. 2697, 6-Chloro-3-(2-cyclopropyl-6-methylphenoxy)-4-pyridazinyl 2-bromo-2-methylpropanoate]"
17,247 to 249 °C,"Cc1cccc(C2CC2)c1Oc1nnc(Cl)cc1OC(=O)c1ccc(C(=O)Oc2cc(Cl)nnc2Oc2c(C)cccc2C2CC2)cc1 [Compound No. 3001, Bis[6-chloro-3-(2-cyclopropyl-6-methylphenoxy)-4-pyridazinyl]terephthalate]"
18,38 to 39 °C,"Cc1cccc(C2CC2)c1Oc1nnc(Cl)cc1OC(=O)C(C)C [Compound No. 1172, 6-Chloro-3-(2-cyclopropyl-6-methylphenoxy)-4-pyridazinyl 2-methylpropanoate]"
19,224 to 225 °C,"Oc1cc(Cl)nnc1Oc1c(Cl)cccc1C1CC1 [Compound No. 740, 6-Chloro-3-(2-chloro-6-cyclopropylphenoxy)-4-pyridazinol]"
